A short description of one data set: method code SF-AS,RC, from DOI: 10.1021/es00166a009, PMID: 22195514. Particulars: pH 1.5.
In the case of `Cc1cccc(O)c1[N+](=O)[O-]`, the logD (as a rule, lipophilicity at a set pH, counting ionised and neutral species) was found to be 2.29.

The next data set is described as follows: method code SF-AS, from DOI: 10.1021/es00166a009, PMID: 22195514.
Conditions: not given
In the case of `Cc1ccc([N+](=O)[O-])c(O)c1`, the logP (in general, a log measure of how a compound divides between an organic and an aqueous phase) amounted to 2.31.

Still in this data set, the particulars now being: pH 1.5.
For the compound `O=[N+]([O-])c1cc(-c2ccccc2)ccc1O`, the logD was found to be 3.71.
On the same count and under the same terms, then `CCC(C)c1ccc(O)c([N+](=O)[O-])c1` (stereo unspecified), with 3.84.
Same read-out and setting: then `Cc1ccc(O)c([N+](=O)[O-])c1`, with 2.37; and `Cc1cc(O)c([N+](=O)[O-])cc1Cl`, with 2.93; and `O=[N+]([O-])c1cc(C(F)(F)F)ccc1O`, with 2.34.
On the same count and under the same terms, then `COc1ccc(O)c([N+](=O)[O-])c1`, with 2.02.
Regarding `O=Cc1ccc(O)c([N+](=O)[O-])c1`, the logD stood at 1.48.
On the same count and under the same terms, then `O=[N+]([O-])c1ccc(F)cc1O`, with 1.91; and `O=[N+]([O-])c1ccccc1O`, with 1.89.

The values above are taken from the SangsterLogP compilation.
